Test results as given in US9938276B2, “6,5-bicyclic octahydropyrrolopyridine orexin receptor antagonists” (Merck Sharp & Dohme Corp., priority 2014, dated 2018).
Blank lines part the entries; values can stand above or below the compound they belong to.

Key:
[1] = biological target: hOX1R (Homo sapiens, UniProt O43613); experiment: hOX1R FLIPR Ca2+ flux assay; format: cell-based; conditions: CHO cells expressing the receptor; agonist 70 pM Ala-6,12 human orexin-A
[2] = biological target: human orexin-2 receptor (Homo sapiens (Human), UniProt O43614); experiment: hOX2R FLIPR Ca2+ flux assay; format: cell-based; conditions: CHO cells expressing the receptor; agonist 70 pM Ala-6,12 human orexin-A
Description: In a typical experiment the OX1 and OX2 receptor antagonistic activity of the compounds of the present invention was determined in accordance with the following experimental method. For intracellular calcium measurements, Chinese hamster ovary (CHO) cells expressing the rat orexin-1 receptor or the human orexin-2 receptor, are grown in Iscove's modified DMEM containing 2 mM L-glutamine, […], 1% hypoxanthine-thymidine supplement, 100 U/ml penicillin, 100 μg/ml streptomycin and 10% heat-inactivated fetal calf serum (FCS). The cells are seeded at 20,000 cells/well into Becton-Dickinson black 384-well clear bottom sterile plates coated with poly-D-lysine. All reagents were from GIBCO-Invitrogen Corp. The seeded plates are incubated overnight at 37° C. and 5% CO2. Ala-6,12 human orexin-A as the agonist is prepared as a 1 mM stock solution in 1% bovine serum albumin (BSA) and diluted in assay buffer (HBSS containing 20 mM HEPES, 0.1% BSA and 2.5 mM probenecid, pH7.4) for use in the assay at a final concentration of 70 pM. Test compounds are prepared as 10 mM stock solution in DMSO, then diluted in 384-well plates, first in DMSO, then assay buffer. On the day of the assay, cells are washed 3 times with 100 μl assay buffer and then incubated for 60 min (37° C., 5% CO2) in 60 μl assay buffer containing 1 μM Fluo-4AM ester, 0.02% pluronic acid, and 1% BSA. The dye loading solution is then aspirated and cells are washed 3 times with 100 μl assay buffer. 30 μl of that same buffer is left in each well. Within the Fluorescent Imaging Plate Reader (FLIPR, Molecular Devices), test compounds are added to the plate in a volume of 25 μl, incubated for 5 min and finally 25 μl of agonist is added. Fluorescence is measured for each well at 1 second intervals for 5 minutes and the height of each fluorescence peak is compared to the height of the fluorescence peak induced by 70 pM Ala-6,12 orexin-A with buffer in place of antagonist. […] Alternatively, compound potency can be assessed by a radioligand binding assay (described in Bergman et. al. Bioorg. Med. Chem. Lett. 2008, 18, 1425-1430) in which the inhibition constant (Ki) is determined in membranes prepared from CHO cells expressing either the OX1 or OX2 receptor. The intrinsic orexin receptor antagonist activity of a compound which may be used in the present invention may be determined by these assays.

Chain of human orexin-2 receptor (O43614 whole entry): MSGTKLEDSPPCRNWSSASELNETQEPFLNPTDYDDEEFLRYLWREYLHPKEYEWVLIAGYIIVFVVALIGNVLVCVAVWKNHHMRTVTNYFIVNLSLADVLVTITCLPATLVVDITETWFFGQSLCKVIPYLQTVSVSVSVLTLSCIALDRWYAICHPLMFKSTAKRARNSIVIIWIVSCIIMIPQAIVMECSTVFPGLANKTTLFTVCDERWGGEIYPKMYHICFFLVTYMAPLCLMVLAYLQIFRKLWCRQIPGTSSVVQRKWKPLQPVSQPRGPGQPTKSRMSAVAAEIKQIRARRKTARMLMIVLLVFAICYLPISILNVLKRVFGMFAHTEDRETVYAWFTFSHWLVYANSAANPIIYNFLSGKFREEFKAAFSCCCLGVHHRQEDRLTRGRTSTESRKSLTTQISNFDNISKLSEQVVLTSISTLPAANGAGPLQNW

Structure (SMILES): CC(C)(O)c1cccc(N2CC[C@@H]3CCN(C(=O)c4ccccc4-n4nccn4)C[C@@H]32)c1 [Example C4, 2-{3-[(3aR, 7aR)-6-{[2-(2H-1,2,3-triazol-2-yl)phenyl]carbonyl}octahydro-1H-pyrrolo[2,3-c]pyridin-1-yl]phenyl}propan-2-ol]
IC50 [1]: 10 µM | IC50 [2]: 0.0486 µM

Structure (SMILES): CC(C)(O)c1ccnc(N2CC[C@@H]3CCN(C(=O)c4ccccc4-n4nccn4)C[C@@H]32)c1 [Example C5, 2-{2-[(3aR, 7aR)-6-{[2-(2H-1,2,3-triazol-2-yl)phenyl]carbonyl}octahydro-1H-pyrrolo[2,3-c]pyridin-1-yl]pyridin-4-yl}propan-2-ol]
IC50 [1]: 10 µM | IC50 [2]: 0.125 µM

Structure (SMILES): CC(C)(O)c1cnc(N2CC[C@@H]3CCN(C(=O)c4ccccc4-n4nccn4)C[C@@H]32)nc1 [Example C6, 2-{2-[(3aR, 7aR)-6-{[2-(2H-1,2,3-triazol-2-yl)phenyl]carbonyl}octahydro-1H-pyrrolo[2,3-c]pyridin-1-yl]pyrimidin-5-yl}propan-2-ol]
IC50 [1]: 10 µM | IC50 [2]: 1.83 µM

Structure (SMILES): N#Cc1ccnc(N2CC[C@@H]3CCN(C(=O)c4cccnc4OCC(F)F)C[C@@H]32)c1 [Example D1, 2-((3aR,7aR)-6-(2-(2,2-difluoroethoxy)nicotinoyl)octahydro-1H-pyrrolo[2,3-c]pyridin-1-yl)isonicotinonitrile]
IC50 [1]: 10 µM | IC50 [2]: 0.147 µM

Structure (SMILES): CCOc1ccccc1C(=O)N1CC[C@H]2CCN(c3cc(C#N)ccn3)[C@H]2C1 [Example E1, 2-((3aR,7aR)-6-(2-ethoxybenzol)octahydro-1H-pyrrolo[2,3-c]pyridin-1-yl)isonicotinonitrile]
IC50 [1]: 10 µM | IC50 [2]: 0.11 µM

Structure (SMILES): CCCc1ccccc1C(=O)N1CC[C@H]2CCN(c3cc(C#N)ccn3)[C@H]2C1 [Example E2, 2-((3aR, 7aR)-6-(2-propylbenzoyl)octahydro-1H-pyrrolo[2,3-c]pyridin-1-yl)isonicotinonitrile]
IC50 [1]: 10 µM | IC50 [2]: 0.0594 µM

Structure (SMILES): N#Cc1ccnc(N2CC[C@@H]3CCN(C(=O)c4ccccc4CC(F)(F)F)C[C@@H]32)c1 [Example E3, 2-((3aR, 7aR)-6-(2-(2,2,2-trifluoroethyl)benzoyl)octahydro-1H-pyrrolo[2,3-c]pyridin-1-yl)isonicotinonitrile]
IC50 [1]: 10 µM | IC50 [2]: 0.0481 µM

IC50 [1]: ≥ 10 µM | IC50 [2]: 0.0627 µM
Structure (SMILES): N#Cc1ccnc(N2CC[C@@H]3CCN(C(=O)c4ccc(F)cc4-n4nccn4)C[C@@H]32)c1 [Example E4, 2-((3aR, 7aR)-6-(4-fluoro-2(2H-1,2,3-triazol-2-yl)benzoyl)octahydro-1H-pyrrolo[2,3-c]pyridin-1-yl)isonicotinonitrile]

Structure (SMILES): N#Cc1ccnc(N2CC[C@@H]3CCN(C(=O)c4cccnc4-c4ccccc4)C[C@@H]32)c1 [Example E5, 2-((3aR, 7aR)-6-(2-phenylnicotinoyl)octahydro-1H-pyrrolo[2,3-c]pyridin-1-yl)isonicotinonitrile]
IC50 [1]: 10 µM | IC50 [2]: 0.0939 µM

Structure (SMILES): CCOc1ncccc1C(=O)N1CC[C@H]2CCN(c3cc(C#N)ccn3)[C@H]2C1 [Example E6, 2-{(3aR, 7aR)-6-[(2-ethoxypyridin-3-yl)carbonyl]octahydro-1H-pyrrolo[2,3-c]pyridin-1-yl}pyridine-4-carbonitrile]
IC50 [1]: 10 µM | IC50 [2]: 1.15 µM

Structure (SMILES): N#Cc1ccnc(N2CC[C@@H]3CCN(C(=O)c4cccnc4OCC(F)(F)F)C[C@@H]32)c1 [Example E7, 2-[(3aR, 7aR)-6-{[2-(2,2,2-trifluoroethoxy)pyridin-3-yl]carbonyl}octahydro-1H-pyrrolo[2,3-c]pyridin-1-yl]pyridine-4-carbonitrile]
IC50 [1]: 10 µM | IC50 [2]: 0.122 µM

Structure (SMILES): N#Cc1ccnc(N2CC[C@@H]3CCN(C(=O)c4ccccc4CC(F)F)C[C@@H]32)c1 [Example E8, 2-[(3aR, 7aR)-6-{[2-(2,2-difluoroethyl)phenyl]carbonyl}octahydro-1H-pyrrolo[2,3-c]pyridin-1-yl]pyridine-4-carbonitrile]
IC50 [1]: 10 µM | IC50 [2]: 0.512 µM

IC50 [1]: ≥ 10 µM | IC50 [2]: 0.319 µM
Structure (SMILES): N#Cc1ccnc(N2CC[C@@H]3CCN(C(=O)c4ccccc4OCC(F)(F)F)C[C@@H]32)c1 [Example E9, 2-[(3aR, 7aR)-6-{[2-(2,2,2-trifluoroethoxy)phenyl]carbonyl}octahydro-1H-pyrrolo[2,3-c]pyridin-1-yl]pyridine-4-carbonitrile]

Structure (SMILES): N#Cc1ccnc(N2CC[C@@H]3CCN(C(=O)c4ccccc4OCC(F)F)C[C@@H]32)c1 [Example E10, 2-[(3aR, 7aR)-6-{[2-(2,2-difluoroethoxy)phenyl]carbonyl}octahydro-1H-pyrrolo[2,3-c]pyridin-1-yl]pyridine-4-carbonitrile]
IC50 [1]: 10 µM | IC50 [2]: 0.139 µM

Structure (SMILES): N#Cc1ccnc(N2CC[C@@H]3CCN(C(=O)c4cccnc4CC(F)(F)F)C[C@@H]32)c1 [Example E11, 2-[(3aR, 7aR)-6-{[2-(2,2,2-trifluoroethyl)pyridin-3-yl]carbonyl}octahydro-1H-pyrrolo[2,3-c]pyridin-1-yl]pyridine-4-carbonitrile]
IC50 [1]: 10 µM | IC50 [2]: 2.11 µM

Structure (SMILES): N#Cc1ccnc(N2CC[C@@H]3CCN(C(=O)c4ccccc4C4CC4)C[C@@H]32)c1 [Example E12, 2-{(3aR, 7aR)-6-[(2-cyclopropylphenyl)carbonyl]octahydro-1H-pyrrolo[2,3-c]pyridin-1-yl}pyridine-4-carbonitrile]
IC50 [1]: 10 µM | IC50 [2]: 0.0816 µM

Structure (SMILES): COc1ccc(C(=O)N2CC[C@H]3CCN(c4cc(C#N)ccn4)[C@H]3C2)c(C2CC2)n1 [Example E13, 2-{(3aR, 7aR)-6-[(2-cyclopropyl-6-methoxypyridin-3-yl)carbonyl]octahydro-1H-pyrrolo[2,3-c]pyridin-1-yl}pyridine-4-carbonitrile]
IC50 [1]: 10 µM | IC50 [2]: 0.98 µM

Structure (SMILES): N#Cc1ccnc(N2CC[C@@H]3CCN(C(=O)c4ccccc4-n4cccn4)C[C@@H]32)c1 [Example E14, 2-[(3aR, 7aR)-6-{[2-(1H-pyrazol-1-yl)phenyl]carbonyl}octahydro-1H-pyrrolo[2,3-c]pyridin-1-yl]pyridine-4-carbonitrile]
IC50 [1]: 10 µM | IC50 [2]: 0.256 µM

Structure (SMILES): N#Cc1ccnc(N2CC[C@@H]3CCN(C(=O)c4ccccc4C4CCC4)C[C@@H]32)c1 [Example E15, 2-{(3aR, 7aR)-6-[(2-cyclobutylphenyl)carbonyl]octahydro-1H-pyrrolo[2,3-c]pyridin-1-yl}pyridine-4-carbonitrile]
IC50 [1]: 9.72 µM | IC50 [2]: 0.0311 µM

Structure (SMILES): N#Cc1ccnc(N2CC[C@@H]3CCN(C(=O)c4ccccc4N4CCCC4)C[C@@H]32)c1 [Example E16, 2-{(3aR, 7aR)-6-[(2-pyrrolidin-1-ylphenyl)carbonyl]octahydro-1H-pyrrolo[2,3-c]pyridin-1-yl}pyridine-4-carbonitrile]
IC50 [1]: 10 µM | IC50 [2]: 0.0989 µM

Structure (SMILES): N#Cc1ccnc(N2CC[C@@H]3CCN(C(=O)c4nccnc4N4CCCC4)C[C@@H]32)c1 [Example E17, 2-{(3aR, 7aR)-6-[(3-pyrrolidin-1-ylpyrazin-2-yl)carbonyl]octahydro-1H-pyrrolo[2,3-c]pyridin-1-yl}pyridine-4-carbonitrile]
IC50 [1]: 10 µM | IC50 [2]: 10 µM

IC50 [1]: ≥ 10 µM | IC50 [2]: 0.0769 µM
Structure (SMILES): N#Cc1ccnc(N2CC[C@@H]3CCN(C(=O)c4ncccc4-c4ccccc4)C[C@@H]32)c1 [Example E18, 2-{(3aR, 7aR)-6-[(3-phenylpyridin-2-yl)carbonyl]octahydro-1H-pyrrolo[2,3-c]pyridin-1-yl}pyridine-4-carbonitrile]

Structure (SMILES): CC(C)Oc1ncccc1C(=O)N1CC[C@H]2CCN(c3cc(C#N)ccn3)[C@H]2C1 [Example E19, 2-[(3aR, 7aR)-6-{[2-(1-methylethoxy)pyridin-3-yl]carbonyl}octahydro-1H-pyrrolo[2,3-c]pyridin-1-yl]pyridine-4-carbonitrile]
IC50 [1]: 10 µM | IC50 [2]: 1.4 µM

IC50 [1]: ≥ 10 µM | IC50 [2]: 1.5 µM
Structure (SMILES): N#Cc1ccnc(N2CC[C@@H]3CCN(C(=O)c4ncccc4-n4nccn4)C[C@@H]32)c1 [Example E20, 2-[(3aR, 7aR)-6-{[3-(2H-1,2,3-triazol-2-yl)pyridin-2-yl]carbonyl}octahydro-1H-pyrrolo[2,3-c]pyridin-1-yl]pyridine-4-carbonitrile]

Structure (SMILES): N#Cc1ccnc(N2CC[C@@H]3CCN(C(=O)c4ccccc4OC(F)F)C[C@@H]32)c1 [Example E21, 2-[(3aR, 7aR)-6-{[2-(difluoromethoxy)phenyl]carbonyl}octa-hydro-1H-pyrrolo[2,3-c]pyridin-1-yl]pyridine-4-carbonitrile]
IC50 [1]: 10 µM | IC50 [2]: 1.52 µM
